In patent US20140303164A1, “THERAPEUTIC COMPOUNDS” (Gilead Sciences, Inc., priority 2013, published 2014):

Assays:
HIV-IIIb = test: Test A: Antiviral Assay in MT4 Cells; type: cell-based, HIV-1; settings: Human immunodeficiency virus 1, IIIB, MT4, 120 h; for inhibition at 0.2 µM: read-out: % inhibition at 0.2 μM; for inhibition at 2 µM: read-out: % inhibition at 2 μM
Protocol: Test A: Antiviral Assay in MT4 Cells
MT-4 cells were next mixed with HIV-IIIb at an m.o.i of 0.003 for 1 hour, after which time 35 μL of virus/cell mixture (2000 cells) was immediately added to each well containing 40 μL of diluted compound. The plates were then incubated at 37° C. for 5 days. […] Cell lysis was carried out by incubating at room temperature for 10 min and then chemiluminescence was read.

[1] = Test B: Cytotoxicity Assay; type: cell-based; settings: human, uninfected MT-4 cells, same protocol as Test A
Summary of the method: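 Uninfected MT-4 cells (2000 per well) incubated with diluted compound at 37° C. for 5 days, following the antiviral protocol without HIV-IIIb.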

| SMILES | inhibition at 0.2 µM (HIV-IIIb) [%] | inhibition at 2 µM (HIV-IIIb) [%] | CC50 at 5 days [1] [µM] |
| --- | --- | --- | --- |
| Cn1nc(NS(C)(=O)=O)c2cccc(-c3ccc(C#CC(C)(C)O)nc3[C@H](Cc3cc(F)cc(F)c3)NC(=O)Cn3nc(C(F)(F)F)c4c3C3CC3CO4)c21 (stereo partly drawn) [Compound 67I, N—((S)-2-(3,5-difluorophenyl)-1-(6-(3-hydroxy-3-methylbut-1-yn-1-yl)-3-(1-methyl-3-(methylsulfonamido)-1H-indazol-7-yl)pyridin-2-yl)ethyl)-2-(3-(trifluoromethyl)-5,5a,6,6a-tetrahydro-1H-cyclopropa[4,5]pyrano[3,2-c]pyrazol-1-yl)acetamide] | 94 | 94 | 21.5 |
| Cc1cc2ncn(CC(=O)N[C@@H](Cc3cc(F)cc(F)c3)c3nc(C#CC(C)(C)O)ccc3-c3ccc(Cl)c4c(NS(C)(=O)=O)nn(C)c34)c2cc1C [Compound 199, (S)—N-(1-(3-(4 chloro-1-methyl-3-(methylsulfonamido)-1H-indazol-7-yl)-6-(3-hydroxy-3-methylbut-1-yn-1-yl)pyridin-2-yl)-2-(3,5-difluorophenyl)ethyl)-2-(5,6-dimethyl-1H-benzo[d]imidazol-1-yl)acetamide] | 95 | 95 | 22.5 |
| COCC(C)(O)C#Cc1ccc(-c2ccc(Cl)c3c(NS(C)(=O)=O)nn(C)c23)c([C@H](Cc2cc(F)cc(F)c2)NC(=O)Cn2nc(C(F)(F)F)c3c2C(F)(F)[C@@H]2C[C@H]32)n1 (stereo partly drawn) [Compound 154, N-((1S)-1-(3-(4-chloro-1-methyl-3-(methylsulfonamido)-1H-indazol-7-yl)-6-(3-hydroxy-4-methoxy-3-methylbut-1-yn-1-yl)pyridin-2-yl)-2-(3,5-difluorophenyl)ethyl)-2-((3bS,4aR)-5,5-difluoro-3-(trifluoromethyl)-3b,4,4a,5-tetrahydro-1H-cyclopropa[3,4]cyclopenta[1,2-c]pyrazol-1-yl)acetamide] | 97 | 97 | 12.5 |
| Cn1nc(NS(C)(=O)=O)c2c(Cl)ccc(-c3ccc(C#CC(C)(C)O)nc3[C@H](Cc3cc(F)cc(F)c3)NC(=O)Cn3nc(Cl)c4c3C(F)(F)[C@@H]3C[C@H]43)c21 [Compound 149, N—((S)-1-(3-(4-chloro-1-methyl-3-(methylsulfonamido)-1H-indazol-7-yl)-6-(3-hydroxy-3-methylbut-1-yn-1-yl)pyridin-2-yl)-2-(3,5-difluorophenyl)ethyl)-2-((3bS,4aR)-3-chloro-5,5-difluoro-3b,4,4a,5-tetrahydro-1H-cyclopropa[3,4]cyclopenta[1,2-c]pyrazol-1-yl)acetamide] | 86 | 86 | 26.7 |
| Cc1[nH]c2ccc(O)cc2c1CC(=O)N[C@@H](Cc1cc(F)cc(F)c1)c1nc(C#CC(C)(C)O)ccc1-c1ccc(Cl)c2c(NS(C)(=O)=O)nn(C)c12 [Compound 192, (S)—N-(1-(3-(4 chloro-1-methyl-3-(methylsulfonamido)-1H-indazol-7-yl)-6-(3-hydroxy-3-methylbut-1-yn-1-yl)pyridin-2-yl)-2-(3,5-difluorophenyl)ethyl)-2-(5-hydroxy-2-methyl-1H-indol-3-yl)acetamide] | 95 | 98 | 28.8 |
| CCC(=O)Nc1nn(C)c2c(-c3ccc(C#CC(C)(C)O)nc3[C@H](Cc3cc(F)cc(F)c3)NC(=O)Cn3nc(C(F)F)c4c3C(F)(F)[C@@H]3C[C@H]43)ccc(Cl)c12 [Compound 95, N-(4-chloro-7-(2-((S)-1-(2-((3b-S,4aR)-3-(difluoromethyl)-5,5-difluoro-3b,4,4a,5-tetrahydro-1H-cyclopropa[3,4]cyclopenta[1,2-c]pyrazol-1-yl)acetamido)-2-(3,5-difluorophenyl)ethyl)-6-(3-hydroxy-3-methylbut-1-yn-1-yl)pyridin-3-yl)-1-methyl-1H-indazol-3-yl)propionamide] | 93 | 93 | 6.51 |
| CC(C)(O)C#Cc1ccc(-c2ccc3nnc(N)n3c2)c([C@H](Cc2cc(F)cc(F)c2)NC(=O)Cn2nc(C(F)F)c3c2C(F)(F)[C@@H]2C[C@H]32)n1 [Compound 105E, N—((S)-1-(3-(3-amino-[1,2,4]triazolo[4,3-a]pyridin-6-yl)-6-(3-hydroxy-3-methylbut-1-yn-1-yl)pyridin-2-yl)-2-(3,5-difluorophenyl)ethyl)-2-((3b-S,4aR)-3-(difluoromethyl)-5,5-difluoro-3b,4,4a,5-tetrahydro-1H-cyclopropa[3,4]cyclopenta[1,2-c]pyrazol-1-yl)acetamide] |  | 74 | 31.5 |
| CCNS(=O)(=O)Nc1nn(C)c2c(-c3ccc(C#CC(C)(C)O)nc3[C@H](Cc3cc(F)cc(F)c3)NC(=O)Cn3nc(C(F)(F)F)c4c3C(F)(F)[C@@H]3C[C@H]43)cccc12 [Compound 53, 2-((3bS,4aR)-5,5-difluoro-3-(trifluoromethyl)-3b,4,4a,5-tetrahydro-1H-cyclopropa[3,4]cyclopenta[1,2-c]pyrazol-1-yl)-N—((S)-2-(3,5-difluorophenyl)-1-(3-(3-((N-ethylsulfamoyl)amino)-1-methyl-1H-indazol-7-yl)-6-(3-hydroxy-3-methylbut-1-yn-1-yl)pyridin-2-yl)ethyl)acetamide] | 92 | 92 | 8.03 |
| CNc1cc(-c2ccc(Cl)c3c(NS(C)(=O)=O)nn(C)c23)c([C@H](Cc2cc(F)cc(F)c2)NC(=O)Cn2nc(C(F)F)c3c2C(F)(F)[C@@H]2C[C@H]32)nc1C#CC(C)(C)O [Compound 182L, N—((S)-1-(3-(4-chloro-1-methyl-3-(methylsulfonamido)-1H-indazol-7-yl)-6-(3-hydroxy-3-methylbut-1-yn-1-yl)-5-(methylamino)pyridin-2-yl)-2-(3,5-difluorophenyl)ethyl)-2-((3b-S,4aR)-3-(difluoromethyl)-5,5-difluoro-3b,4,4a,5-tetrahydro-1H-cyclopropa[3,4]cyclopenta[1,2-c]pyrazol-1-yl)acetamide] | 100 | 100 | 9.83 |
| Cn1nc(N)c2cccc(-c3cnc(C#CC(C)(C)O)nc3[C@H](Cc3cc(F)cc(F)c3)NC(=O)Cn3nc(C(F)F)c4c3C(F)(F)CCC4(F)F)c21 [Compound 37F, (S)—N-(1-(5-(3-amino-1-methyl-1H-indazol-7-yl)-2-(3-hydroxy-3-methylbut-1-yn-1-yl)pyrimidin-4-yl)-2-(3,5-difluorophenyl)ethyl)-2-(3-(difluoromethyl)-4,4,7,7-tetrafluoro-4,5,6,7-tetrahydro-1H-indazol-1-yl)acetamide] | 90 | 90 | 6.35 |
| CC(C)(O)C#Cc1ccc(-c2ccc3n[nH]c(=O)n3c2)c([C@H](Cc2cc(F)cc(F)c2)NC(=O)Cn2nc(C(F)(F)F)c3c2C(F)(F)[C@@H]2C[C@H]32)n1 [Compound 26, 2-((3bS,4aR)-5,5-difluoro-3-(trifluoromethyl)-3b,4,4a,5-tetrahydro-1H-cyclopropa[3,4]cyclopenta[1,2-c]pyrazol-1-yl)-N—((S)-2-(3,5-difluorophenyl)-1-(6-(3-hydroxy-3-methylbut-1-yn-1-yl)-3-(3-oxo-2,3-dihydro-[1,2,4]triazolo[4,3-a]pyridin-6-yl)pyridin-2-yl)ethyl)acetamide] | 84 | 100 | 10 |
| Cn1nc(NS(N)(=O)=O)c2c(Cl)ccc(-c3ccc(C#CC(C)(C)O)nc3[C@H](Cc3cc(F)cc(F)c3)NC(=O)Cn3nc(C(F)(F)F)c4c3C(F)(F)[C@@H]3C[C@H]43)c21 [Compound 119C, N—((S)-1-(3-(4-chloro-1-methyl-3-(sulfamoylamino)-1H-indazol-7-yl)-6-(3-hydroxy-3-methylbut-1-yn-1-yl)pyridin-2-yl)-2-(3,5-difluorophenyl)ethyl)-2-((3b-S,4aR)-5,5-difluoro-3-(trifluoromethyl)-3b,4,4a,5-tetrahydro-1H-cyclopropa[3,4]cyclopenta[1,2-c]pyrazol-1-yl)acetamide] | 99 | 99 | 9.24 |
| C[C@H](O)C#Cc1ccc(-c2ccc(Cl)c3c(NS(C)(=O)=O)nn(C)c23)c([C@H](Cc2cc(F)cc(F)c2)NC(=O)Cn2nc(C(F)F)c3c2C(F)(F)[C@@H]2C[C@H]32)n1 [Compound 142, N—((S)-1-(3-(4-chloro-1-methyl-3-(methylsulfonamido)-1H-indazol-7-yl)-6-((S)-3-hydroxybut-1-yn-1-yl)pyridin-2-yl)-2-(3,5-difluorophenyl)ethyl)-2-((3bS,4aR)-3-(difluoromethyl)-5,5-difluoro-3b,4,4a,5-tetrahydro-1H-cyclopropa[3,4]cyclopenta[1,2-c]pyrazol-1-yl)acetamide] | 92 | 92 | 12.6 |
| CC(C)(O)C#Cc1ncc(-c2ccc3c(c2)C(=O)NC3)c([C@H](Cc2cc(F)cc(F)c2)NC(=O)Cn2nc(C(F)F)c3c2C(F)(F)CCC3(F)F)n1 [Compound 21H, (S)-2-(3-(difluoromethyl)-4,4,7,7-tetrafluoro-4,5,6,7-tetrahydro-1H-indazol-1-yl)-N-(2-(3,5-difluorophenyl)-1-(2-(3-hydroxy-3-methylbut-1-yn-1-yl)-5-(3-oxoisoindolin-5-yl)pyrimidin-4-yl)ethyl)acetamide] | 92 | 92 | 7.63 |
